Measurements taken from patent publication US20160045459A1, “Pharmaceutical Combination” (Gruenenthal GmbH, priority 2006, published 2016).
Like-named read-outs stand apart in the source and are kept apart here.

System: rat
Experiment: Randall-Selitto test in rats (Carrageenin-induced oedema, model for inflammatory pain), with isobolographic analysis of fixed ratio combinations
Format: in vivo
Conditions: for ED50: Rattus norvegicus, confidence interval in brackets; for timepoint of peak effect: substance applied alone, A i.v., NSAIDs i.p.
Description: The weight ratios of the components (a) and (b) that will lead to a supra-additive effect (synergistic effect) of the inventive pharmaceutical composition may be determined via the test of Randall and Selitto as described in Arch. Int. Pharmacodyn., 1957, 111: 409 to 419, which is a model for inflammatory pain. The respective part of the literature is hereby incorporated by reference and forms part of the present disclosure.
By means of injection of 0.1 ml of Carrageenin-suspension ventrally into a hind paw of a rat an oedema is induced, on which pain is generated 4 hours later by continuously increasing pressure with a stamp (2 mm tip diameter). The antinociceptive and antihyperalgesic activity of the tested substance is determined at different points in time after administration of the substance. The measured value to be determined and at the same time also the end point of the pain test is the pressure at which the vocalisation reaction of the rat occurs. The percentage maximum possible effect (% MPE) is calculated. The maximum pressure of the stamp is 250 g. The group size is n=10.
The interactions studies presented herein were performed using equieffective doses of the two components, calculated from the ratio of the respective ED50 values of the components if administered alone.
The application route was intravenous (i.v.) for (1R,2R)-3-(3-Dimethylamino-1-ethyl-2-methyl-propyl)-phenol (A) and intraperitoneal (i.p.) for the NSAIDs Diclofenac-sodium and Ibuprofen. […] According to their respective timepoint of peak effect, (1R,2R)-3-(3-Dimethylamino-1-ethyl-2-methyl-propyl)-phenol was applied 15 min and Diclofenac-Sodium and Ibuprofen 30 min before timepoint of measurement of the interaction-experiments (i. e. Diclofenac-Sodium or Ibuprofen were applied 15 min before (1R,2R)-3-(3-Dimethylamino-1-ethyl-2-methyl-propyl)-phenol, respectively). Thus, the time point of ED50 calculation of the combination corresponds to the timepoint of the peak effect of the respective compound.
The application route was intravenous (i.v.) for (1R,2R)-3-(3-Dimethylamino-1-ethyl-2-methyl-propyl)-phenol (A) and intraperitoneal (i.p.) for the NSAIDs (+)-Naproxen, Ketoprofen and Metamizol-Sodium. […] According to their respective timepoint of peak effect, (1R,2R)-3-(3-Dimethylamino-1-ethyl-2-methyl-propyl)-phenol was applied 15 min and (+)-Naproxen, Ketoprofen and Metamizol-Sodium 45 min before timepoint of measurement of the interaction-experiments (i. e. (+)-Naproxen, Ketoprofen and Metamizol-Sodium were applied 30 min before (1R,2R)-3-(3-Dimethylamino-1-ethyl-2-methyl-propyl)-phenol, respectively). Thus, the time point of ED50 calculation of the combination corresponds to the timepoint of the peak effect of the respective compound.

[1] = ip, 0.5 h, study A, i.p., 30 min p. appl. (peak effect), read-out: ED50 of the NSAID applied alone
[2] = ip, 0.75 h, study B, i.p., 45 min p. appl. (peak effect), read-out: ED50 of the NSAID applied alone

SMILES	ED50 (iv, 0.25 h, read-out: ED50 of A applied alone, study A, i.v., 15 min p. appl. (peak effect)) [mg/kg]	ED50 (iv, 0.25 h, read-out: ED50 of A applied alone, study B, i.v., 15 min p. appl. (peak effect)) [mg/kg]	ED50 [1] [mg/kg]	analgesic effect of the NSAID applied alone (i.p.)	timepoint of peak effect [min p. appl.]	ED50 [2] [mg/kg]
CC[C@@H](c1cccc(O)c1)[C@@H](C)CN(C)C [A, (1R,2R)-3-(3-Dimethylamino-1-ethyl-2-methyl-propyl)-phenol]	1.88	1.88				
O=C(O)Cc1ccccc1Nc1c(Cl)cccc1Cl [Diclofenac-Sodium]			145	dose-dependent analgesic effects	30	
CC(C)Cc1ccc(C(C)C(=O)O)cc1 (centres unmarked) [Ibuprofen, 2-(4-Isobutylphenyl)propanoic acid]			139	dose-dependent analgesic effects	30	
CC(C(=O)O)c1cccc(C(=O)c2ccccc2)c1 (centres unmarked) [Ketoprofen, 2-(3-Benzoylphenyl)propanoic acid]				dose-dependent analgesic effects	45	224
CC1C(N(C)CS(=O)(=O)[O-])C(=O)N(c2ccccc2)N1C.[Na+] (centres unmarked) [Metamizol-Sodium, Sodium ((1,5-dimethyl-3-oxo-2-phenylpyrazolidin-4-yl)(methyl)amino)methanesulfonate]				dose-dependent analgesic effects	45	88.1
